From patent US9839639B2, “Neprilysin inhibitors” (THERAVANCE BIOPHARMA R&D IP, LLC, priority 2014, dated 2017)

What was measured:
[1] = target: T1, human NEP (Homo sapiens, UniProt P08473); test: In vitro enzyme inhibition assay, inhibitor potency at human NEP; assay type: biochemical; conditions: recombinant human NEP, fluorogenic peptide substrate 10 μM, 37° C.; values given as ranges
T1 construct: purchased R&D Systems, Minneapolis, Minn; 1182-ZN
Procedure: The inhibitory activities of compounds at human and rat neprilysin (EC 3.4.24.11; NEP) and human angiotensin converting enzyme (ACE) were determined using in vitro assays as described below.
Recombinant human NEP and recombinant human ACE were obtained commercially (R&D Systems, Minneapolis, Minn., catalog numbers 1182-ZN and 929-ZN, respectively). The fluorogenic peptide substrate Mca-D-Arg-Arg-Leu-Dap-(Dnp)-OH (Medeiros et al. (1997) Braz. J. Med. Biol. Res. 30:1157-62; Anaspec, San Jose, Calif.) and Abz-Phe-Arg-Lys(Dnp)-Pro-OH (Araujo et al. (2000) Biochemistry 39:8519-8525; Bachem, Torrance, Calif.) were used in the NEP and ACE assays respectively.
The assays were performed in 384-well white opaque plates at 37° C. using the fluorogenic peptide substrates at a concentration of 10 μM in Assay Buffer (NEP: 50 mM HEPES, pH 7.5, 100 mM NaCl, 0.01% polyethylene glycol sorbitan monolaurate (Tween-20), 10 μM ZnSO4; ACE: 50 mM HEPES, pH 7.5, 100 mM NaCl, 0.01% Tween-20, 1 μM ZnSO4).
Test compounds were assayed over the range of concentrations from 10 μM to 20 pM. Test compounds were added to the enzymes and incubated for 30 minute at 37° C. prior to initiating the reaction by the addition of substrate. Reactions were terminated after 20 minutes of incubation at 37° C. by the addition of glacial acetic acid to a final concentration of 3.6% (v/v).
Plates were read on a fluorometer with excitation and emission wavelengths set to 320 nm and 405 nm, respectively. Inhibition constants were obtained by nonlinear regression of the data using the equation (GraphPad Software, Inc., San Diego, Calif.): v=v0/[1+(I/K′)] where v is the reaction rate, v0 is the uninhibited reaction rate, I is the inhibitor concentration and K′ is the apparent inhibition constant.
Compounds of the invention were tested in this assay and found to have pKi values at human NEP as follows.

[2] = Rat PO cassette assay (oral bioavailability); assay type: in vivo; conditions: plasma, male Sprague-Dawley rats, single oral gavage vs intravenous dose, 0.5 mg/kg, read-out: % F (oral bioavailability)
Description: Oral bioavailability, or % F, is a measure of the percentage of a drug in an oral dose that actually reaches the systemic circulation. Compound losses can occur due to incomplete formulation dissolution, incomplete absorption due to compound insolubility or instability along the GI, or metabolism in the gut or across the gut wall. The fraction of the dose which reaches the hepatic portal vein must also then pass through the liver before reaching the systemic circulation. Compound metabolism, or “first-pass extraction,” can occur during this initial passage through the liver, and this is an additional potential source of compound loss. Oral bioavailability is calculated as the dose-normalized ratio of drug exposure after an oral dose to that after an intravenous dose, wherein the entire dose is delivered directly to the systemic circulation.
Each cassette study begins with 10 mM DMSO stock solutions of up to 5 different compounds. Typically, compounds are selected such no two compounds dosed in the same cassette have a molecular weight within 5 Da of each other. This simplifies subsequent bioanalysis. Appropriate volumes of each DMSO stock are added into a volume of vehicle (5% sodium bicarbonate, 5% dextrose in H2O) such that the final concentration of each compound is 0.25 mg/mL. Intravenous dosing solutions are sterile-filtered (0.2 μm) prior to dosing.
Pre-cannulated male Sprague-Dawley rats (3 per cassette per route) between 8 and 10 weeks of age were obtained from Harlan Laboratories (Indianapolis, Ind.). Rats received either a single oral gavage or a single intravenous (via lateral tail vein) dose (2 mL/kg) of the dosing solution. The final dose was 0.5 mg/kg. Serial blood samples were harvested via jugular vein cannula at 3 minutes, 15 minutes, 30 minutes, 1 hours, 2 hours, 4 hours, 6 hours, and 24 hours post-dose. Sampling was performed either manually or using automated blood samplers. Samples were collected into microtainer tubes containing EDTA as the anticoagulant and are processed to plasma by refrigerated centrifugation.
Plasma samples were extracted with 3 volumes of MeCN containing a suitable internal standard. Extracts were reconstituted into 3 volumes of water containing 1% formic acid, and analyzed via HPLC-coupled MS/MS. Plasma concentration-time data were analyzed using the Phoenix software (Pharsight Corp., St. Louis, Mo.) to calculate pharmacokinetic parameters.
Compounds of the invention of particular interest were those having a % F>10%, when tested in this assay.

T1 sequence (P08473 52-750 limits assumed): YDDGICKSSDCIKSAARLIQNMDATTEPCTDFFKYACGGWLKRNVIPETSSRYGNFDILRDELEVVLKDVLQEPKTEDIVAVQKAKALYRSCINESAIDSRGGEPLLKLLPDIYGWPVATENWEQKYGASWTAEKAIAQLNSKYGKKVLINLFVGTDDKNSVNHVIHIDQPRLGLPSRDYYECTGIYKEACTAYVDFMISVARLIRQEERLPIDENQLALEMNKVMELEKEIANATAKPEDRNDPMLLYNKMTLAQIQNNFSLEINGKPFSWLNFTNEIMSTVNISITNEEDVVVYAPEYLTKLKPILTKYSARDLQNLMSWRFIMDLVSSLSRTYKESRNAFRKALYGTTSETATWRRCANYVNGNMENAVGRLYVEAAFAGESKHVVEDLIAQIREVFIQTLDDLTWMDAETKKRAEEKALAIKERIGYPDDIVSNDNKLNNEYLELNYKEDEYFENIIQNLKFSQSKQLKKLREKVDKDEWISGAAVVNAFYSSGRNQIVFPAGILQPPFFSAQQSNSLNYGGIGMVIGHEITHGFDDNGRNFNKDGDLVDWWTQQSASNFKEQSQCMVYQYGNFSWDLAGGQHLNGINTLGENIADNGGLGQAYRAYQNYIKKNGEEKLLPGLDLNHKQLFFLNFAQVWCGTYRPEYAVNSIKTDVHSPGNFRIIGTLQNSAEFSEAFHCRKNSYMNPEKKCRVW

| SMILES | Ki [1] [nM] | bioavailability [2] [%] | pKi [1] |
| --- | --- | --- | --- |
| O=C(N[C@H](Cc1ccc(-c2cc(Cl)ccc2F)cc1)CC1(C(=O)O)CCOC1)c1cnn[nH]1 (single isomer, unassigned) [Example 20a] | ≤ 1 | > 10 | – |
| CCOC[C@](C)(C[C@@H](Cc1ccc(-c2cccc(Cl)c2)cc1)NC(=O)c1noc(=O)[nH]1)C(=O)O [Example 9, (2S,4R)-5-(3′-Chlorobiphenyl-4-yl)-2-ethoxymethyl-2-methyl-4-[(5-oxo-4,5-dihydro-[1,2,4]oxadiazole-3-carbonyl)amino]pentanoic Acid] | ≤ 1 | > 10 | – |
| CCCC(CO)(C[C@@H](Cc1ccc(-c2cc(Cl)ccc2F)cc1)NC(=O)c1cnn[nH]1)C(=O)O (single isomer, unassigned) [Example 15a] | ≤ 1 | > 10 | – |
| CCOC[C@](C)(C[C@@H](Cc1ccc(-c2cc(Cl)ccc2F)cc1)NC(=O)c1n[nH]nc1C)C(=O)O [Example 11-4, (2S,4R)-5-(5′-Chloro-2′-fluorobiphenyl-4-yl)-2-ethoxymethyl-2-methyl-4-[(5-methyl-2H-[1,2,3]triazole-4-carbonyl)amino]pentanoic acid] | 1.26 to 3.16 | > 10 | – |
| CCC(CO)(C[C@@H](Cc1ccc(-c2cc(Cl)ccc2F)cc1)NC(=O)c1cnn[nH]1)C(=O)O (single isomer, unassigned) [Example 14a] | ≤ 1 | > 10 | – |
| COC[C@](C)(C[C@@H](Cc1ccc(-c2cc(Cl)ccc2F)cc1)NC(=O)c1coc(C2CC2)n1)C(=O)O [Example 8-2, (2S,4R)-5-(5′-Chloro-2′-fluorobiphenyl-4-yl)-4-[(2-cyclopropyloxazole-4-carbonyl)amino]-2-methoxymethyl-2-methylpentanoic acid] | 1.26 to 3.16 | – | – |
| O=C(N[C@H](Cc1ccc(-c2cc(Cl)ccc2F)cc1)CC1(C(=O)O)CCOC1)c1cnn[nH]1 (single isomer, unassigned) [Example 20b] | – | – | ≧9.0 |
| CC(=O)c1cc(C(=O)N[C@H](Cc2ccc(-c3cc(Cl)ccc3F)cc2)C[C@@](C)(CN)C(=O)O)[nH]n1 [Example 4-1, (2S,4R)-4-[(5-Acetyl-2H-pyrazole-3-carbonyl)-amino]-2-aminomethyl-5-(5′-chloro-2′-fluorobiphenyl-4-yl)-2-methylpentanoic acid] | 3.98 to 10 | – | – |
| CC(C[C@@H](Cc1ccc(-c2cc(Cl)ccc2F)cc1)NC(=O)c1c[nH]nn1)(C(=O)O)C(=O)O [Example 6, 2-{(R)-3-(5′-Chloro-2′-fluorobiphenyl-4-yl)-2-[(1H-[1,2,3]triazole-4-carbonyl)amino]propyl}-2-methylmalonic Acid] | ≤ 1 | – | – |
| NCCC(CO)(C[C@@H](Cc1ccc(-c2cc(Cl)ccc2F)cc1)NC(=O)c1cnn[nH]1)C(=O)O (stereo partly drawn) [Example 17, (R)-2-(2-Amino-ethyl)-5-(5′-chloro-2′-fluorobiphenyl-4-yl)-2-hydroxymethyl-4-[(3H-[1,2,3]triazole-4-carbonyl)amino]pentanoic Acid] | 1.26 to 3.16 | – | – |
